Test results from patent publication US10858305B2, “Perillyl alcohol-3-bromopyruvate conjugate and methods of treating cancer” (NeOnc Technologies, Inc., priority 2016, dated 2020).
pIC50: −log10 of the molar value. Entries after “also recorded” stand apart in the source; their conditions may differ. Read-outs that look alike come from different tables or passages of the source.

Experiments:
GAPDH = target: T1, GAPDH (Oryctolagus cuniculus, UniProt P46406); experiment: Mass spectrometry of purified GAPDH protein incubated with drug (cysteine modification); format: binding, rabbit; conditions: 60 μM drug, 15 minutes
T1 construct: Purified GAPDH protein (30 μg, 1 μg/μl) from rabbit muscle (ScienCell Research Laboratories); purchased ScienCell Research Laboratories; host or cells: rabbit muscle
Procedure: Direct interaction of NEO218 with different targets was analyzed by LC/MS analysis. (A) Purified rabbit GAPDH protein was incubated with 3-BP or NEO218 for 15 minutes, followed by LC/MS analysis. GAPDH protein contains 4 cysteines (Cys) at the indicated positions, and all four were identified as being modified with a pyruvate moiety in the case of 3-BP, and a pyruvate-perillyl alcohol moiety in the case of NEO218 (indicated by pyr). (B) Extracted ion chromatogram (XIC) of the reaction products of NEO218 and GSH restricted to mass over charge (m/z) values between 528 and 529. […] Location and relative size of the peak at 529.204 corresponds to the ^13C isotope peak of the reaction product. (C) Reaction of NAC with NEO218 yielded several products shown in the ion map (top panel). The co-eluting twin isotope at m/z 539 and 541 distributed equally (insert in top panel) and was selected for further analysis, as shown in the two chromatograms in the bottom panels.
Thirty microgram of purified GAPDH protein was incubated in vitro with 60 μM 3-BP for 15 minutes at 37° C. Mass spectrometrical analysis was then used to determine whether 3-BP could directly bind to the amino acid sequence of the enzyme. […]

HCT116 cells = experiment: MTT assay with or without antioxidants NAC or GSH; format: cell-based, human; conditions: HCT116, MTT after 24 hours
Procedure: (A) HCT116 cells were treated with 40 μM 3-BP or NEO218 in the presence or absence of 1 mM NAC, 1 mM GSH, or 50 mM methyl-pyruvate (or sodium pyruvate, which produced similar outcomes). Cell viability was determined 24 hours later by MTT assay. (B) HCT116 cells were treated with 30 or 100 μM 3-BP or NEO218. After 30 minutes, cell lysates were prepared and analyzed for GAPDH activity. (C) Lysates from non-drug-treated MDA-MB-231 cells were mixed with 3-BP or NEO218 in the presence or absence of NAC or GSH at the concentrations mentioned in A. After 1 hour of incubation, GAPDH activity was determined. GAPDH activity in the absence of drug treatment was set at 100% (corresponding to 0.06 units/min×10^6 cells).
Tumor cells were treated with either NAC or GSH, in combination with NEO218 or 3-BP. HCT116 cells were treated with increasing concentrations of NEO218 and 3-BP (individually), in the presence or absence of 5 mM NAC or 1 mM GSH. After 24 hours, cell viability was determined by MTT assay.

tumor cells = experiment: Cytotoxicity in the presence of necroptosis inhibitor necrostatin-1; format: cell-based; conditions: data not shown
Excerpt: All our data are highly consistent and point to necrosis as the overwhelmingly dominant mechanism of cell death by both 3-BP and NEO218 in our cell systems, as supported by the following observations: (i) A pan-caspase inhibitor exerted no influence on the cytotoxic IC50 of 3-BP or NEO218 (FIG. 21C). (ii) Several established protein markers of apoptosis show very little, if any, response to drug treatment (FIG. 21B). (iii) Loss of structural integrity of the plasma membrane is a hallmark of necrosis and can be documented via cellular uptake of membrane-impermeant dyes (such as propidium iodide, PI) or cellular leakage of cytosolic enzymes (such as lactate dehydrogenase, LDH). […] The loss of plasma membrane integrity is consistent with cell death induced by the severe ATP depletion observed by us (FIG. 22) and reported by others, because maintenance of the cytoplasmic transmembrane electrochemical gradients is highly energy dependent, and their loss inevitably leads to cell swelling and membrane rupture (i.e., necrosis). (iv) Rapid cell death is another characteristic of necrotic cell death. We detected PI positivity and LDH release within the first 2 hours of drug exposure (see FIG. 21A for PI; time course not shown for LDH). […] Cells were treated with 3-BP or NEO218 in the presence of necrostatin-1 (Nec-1), a commonly used inhibitor of necroptosis.

[1] = test system: HCT116 cells transfected with MCT-1 siRNA or scrambled control; experiment: MTT assay in HCT116 cells after siRNA knockdown of MCT-1; format: cell-based; conditions: Homo sapiens
Procedure: HCT116 cells were transfected with siRNA targeted at MCT-1 (circles), or with a scrambled control (diamonds). (A) Cellular sensitivity to 3-BP and NEO218 was determined by MTT assay. Dotted lines and arrow show the shift in IC50. Note pronounced shift to the right in 3-BP-treated cells (left, panel), compared to a minor shift to the left in NEO218-treated cells (right panel). (B) Knockdown of MCT-1 protein levels was confirmed by Western blot analysis with actin as the loading control. (C) MCT-1 knockdown was also confirmed at the individual cell level by immunocytochemistry. The two photos were similarly overexposed in order to emphasize the pronounced difference in MCT-1 levels.
Methylthiazoletetrazolium (MTT) assays were performed as described earlier.
All siRNAs were purchased from Qiagen, Valencia, Calif. To knock down MCT1 expression, we used siRNA Hs_SLC16A1_6 (target sequence: 5′-[…]-3′). As a non-silencing control, we used AllStars Negative Control siRNA, which lacks homology to any known mammalian gene. One hundred thousand cells per well of a 6-well plate were transfected with 50 nM siRNA using jetPRIME transfection reagent and buffer (Polyplus Transfection, New York, N.Y.). Medium was changed after 24 hours and cells were subjected to experiments 72 hours after transfection. 2.10. Immunoblots

[2] = test system: MCF7, 231, T47D, BTB-12, ME16C, 468, HCT116 cells; experiment: MTT cytotoxic IC50 aligned with MCT1 expression levels (FIG. 14); conditions: Homo sapiens
Procedure: The expression levels of MCT1 in different tumor cell lines were determined by Western blot analysis and correlated with cytotoxic IC50 values in response of treatment of the same cells with NEO218 or 3-BP generated by MTT assay.

T1 sequence (P46406 whole entry): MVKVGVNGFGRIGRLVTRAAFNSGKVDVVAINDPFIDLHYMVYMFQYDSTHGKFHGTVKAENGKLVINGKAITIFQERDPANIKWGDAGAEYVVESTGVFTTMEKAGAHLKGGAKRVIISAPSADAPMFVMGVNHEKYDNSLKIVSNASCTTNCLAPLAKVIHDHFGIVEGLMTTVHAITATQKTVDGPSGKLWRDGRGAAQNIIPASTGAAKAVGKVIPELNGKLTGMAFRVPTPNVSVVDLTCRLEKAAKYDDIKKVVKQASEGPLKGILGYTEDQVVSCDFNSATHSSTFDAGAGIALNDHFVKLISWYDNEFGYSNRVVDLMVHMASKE

Row | Structure (SMILES) | cysteine residues of GAPDH modified (GAPDH) | effect of antioxidants NAC or GSH on drug-induced cell death (HCT116 cells) | effect of necrostatin-1 on drug-induced cytotoxic outcome (tumor cells) | pIC50 ([1]; HCT-116, read-out: IC50 (MTT), HCT116, MCT-1 siRNA knockdown) | pIC50 ([1]; HCT-116, read-out: IC50 (MTT), HCT116, scrambled control siRNA) | pIC50 ([2]; HCT-116, read-out: cytotoxic IC50) | pIC50 ([2]; read-out: cytotoxic IC50) | pIC50 ([1]; HCT-116, HCT116, MCT-1 siRNA knockdown, read-out: IC50 (MTT)) | pIC50 ([1]; HCT-116, HCT116, scrambled control siRNA, read-out: IC50 (MTT))
1 | O=C(O)C(=O)CBr [3-BP, 3-bromopyruvate] | Cysteines at amino acid positions 245 and 282 turned out to be pyruvylated; also recorded: all 4 cysteines were altered by the addition of pyruvate | profound protection; also recorded: drug-induced cell death was completely prevented | no impact of Nec-1 on drug-induced cytotoxic outcome could be detected | 4.17 | 4.70 | > 4.00 | < 3.52 |  | 
2 | C=C(C)[C@@H]1CC=C(COC(=O)C(=O)CBr)CC1 [NEO218, 3-bromo-2-oxo-propionic acid 4-isopropenyl-cyclohex-1-enylmethyl ester] | the same four residues revealed attachment of pyruvate-perillyl alcohol moieties | antioxidant treatment similarly protected cells; also recorded: drug-induced cell death was completely prevented | no impact of Nec-1 on drug-induced cytotoxic outcome could be detected |  |  |  | > 4.46 | 4.82 | 4.72
